Series [1] is described as follows: cells.
Series [2] is described as follows: NIH3T3 cell viability loss – ATP luminescence, mouse fibroblasts, counter-screen, dose response (AID 2010).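 Also: cells exposed to compound for about 90 hours before reading.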 In kind it is functional, cell-based.
Series [3] in a line: Luminescence Cell-Based Secondary HTS screen to identify cytotoxic compounds of NIH3T3 cells. [Related pubchem assays: 1885, 1968 ]. In kind it is functional.
The nature of series [4]: Trypanosoma cruzi growth suppression in host cells – NIH3T3 host cells, beta-gal luminescence, confirmation (AID 2044).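 Also: intracellular parasites grown in NIH/3T3 mouse fibroblasts as host cells; luminescent beta-galactosidase reporter signal from transgenic T. cruzi replicating inside host cells; inhibitors lower the luminescence signal.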 Type of series: functional, cell-based.
The nature of series [5]: T. cruzi infection blockers in NIH3T3 cells – beta-gal luminescence, NIH3T3 host cells, confirmation (AID 2630). Type of series: functional, cell-based. Conditions: Mus musculus.
A short description of series [6]: Luminescence Cell-Based/Microorganism Confirmation at Dose of Inhibitors of Trypanosoma cruzi Infection. [Related pubchem assays: 1885, 1968 ]. Type of series: functional.
Series [7] has as its target T1, Short transient receptor potential channel 4 (Mus musculus, UniProt Q9QUQ5).
T1 sequence (Q9QUQ5 whole entry): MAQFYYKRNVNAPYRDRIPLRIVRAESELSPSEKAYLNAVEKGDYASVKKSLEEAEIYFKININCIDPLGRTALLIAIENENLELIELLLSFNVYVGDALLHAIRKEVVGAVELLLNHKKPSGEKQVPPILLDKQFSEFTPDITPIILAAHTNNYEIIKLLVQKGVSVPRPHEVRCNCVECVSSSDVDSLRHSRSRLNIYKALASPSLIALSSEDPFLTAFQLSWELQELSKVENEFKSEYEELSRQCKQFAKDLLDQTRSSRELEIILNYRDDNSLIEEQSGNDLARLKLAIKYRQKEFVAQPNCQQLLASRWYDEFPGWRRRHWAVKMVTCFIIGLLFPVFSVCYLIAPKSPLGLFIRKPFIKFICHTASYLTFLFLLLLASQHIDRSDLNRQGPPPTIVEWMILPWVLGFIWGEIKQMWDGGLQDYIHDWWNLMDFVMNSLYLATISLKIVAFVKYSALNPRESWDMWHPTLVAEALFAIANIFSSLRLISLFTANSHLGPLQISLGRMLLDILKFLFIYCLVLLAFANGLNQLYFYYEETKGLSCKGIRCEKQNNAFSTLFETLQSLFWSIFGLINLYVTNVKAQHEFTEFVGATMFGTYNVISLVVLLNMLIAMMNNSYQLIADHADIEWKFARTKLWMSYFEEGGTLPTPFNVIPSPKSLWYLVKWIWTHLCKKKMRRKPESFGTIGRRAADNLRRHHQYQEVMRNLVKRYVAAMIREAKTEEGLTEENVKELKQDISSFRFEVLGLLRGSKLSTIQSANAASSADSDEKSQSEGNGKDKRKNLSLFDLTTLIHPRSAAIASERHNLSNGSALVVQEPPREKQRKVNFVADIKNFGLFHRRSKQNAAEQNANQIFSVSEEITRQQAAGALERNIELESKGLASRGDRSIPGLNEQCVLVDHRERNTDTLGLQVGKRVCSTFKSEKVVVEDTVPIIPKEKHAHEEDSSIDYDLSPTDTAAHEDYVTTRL
Briefly: calcium entry via TRPC4 opening agents – cell-based, HEK293 TRPC4/mu-opioid, Fluo-4 calcium, dose response (AID 434937). In kind it is functional.

For series [8], the target named is 5-hydroxytryptamine receptor 5A (Homo sapiens, UniProt P47898). Briefly: Counterscreen for agonists of OPRM1-OPRD1 heterodimerization: luminescence-based cell-based high throughput dose response assay to identify agonists of 5-hydroxytryptamine (serotonin) 5A receptor (HTR5A). [Related pubchem assays (depositor defined):AID504326, AID504355, AID504692, AID504904, AID504905]. Type of series: functional.

The target in the next series is Mu-type opioid receptor (Homo sapiens, UniProt P35372). Briefly: Counterscreen for agonists of heterodimerization of the mu 1 (OPRM1) and delta 1 (OPRD1) opioid receptors: Luminescence-based cell-based high throughput dose response assay to identify agonists of OPRM1 homodimerization. Type of series: functional.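 Also: U2OS cells expressing OPRM1 and beta-arrestin as split beta-galactosidase partners.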
Series [9] concerns the target Delta-type opioid receptor (Homo sapiens, UniProt P41143). Briefly: Counterscreen for agonists of heterodimerization of the mu 1 (OPRM1) and delta 1 (OPRD1) opioid receptors: Luminescence-based cell-based high throughput dose response assay to identify agonists of OPRD1 homodimerization. [Related pubchem assays (depositor defined):AID504326, AID504355, AID504692, AID504904, AID504905]. Type of series: functional.

The target in series [10] is Opioid receptors; mu & delta (Homo sapiens, UniProt P41143+P35372). Briefly: OPRM1-OPRD1 heterodimer agonist potency – cell-based, luminescence, dose response (AID 588407). Type of series: functional.
A short description of series [11]: Luminescence Cell-Based Dose Retest to Confirm Inhibitors of Cancer Stem Cells. [Related pubchem assays (depositor defined):AID2717, AID2721]. In kind it is functional. Conditions: Homo sapiens.
Series [12] can be described thus: viability loss of HMLE_sh_eGFP cells – cell-based, luminescence, counter-screen for HMLE_sh_ECad selective toxicity project, dose response (AID 463074).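 Also: HMLE human mammary epithelial cells expressing control shRNA against eGFP.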 In kind it is functional, Homo sapiens.
Another series has as its system Streptococcus. Briefly: GAS UMAA2166 growth inhibition – luminescence, BacTiterGlo, counter-screen for streptokinase expression inhibitor project, dose response (AID 1915).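 Also: potency for reduction of bacterial viability or growth.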 In kind it is functional, organism-based.
For series [13], the system named is Streptococcus sp. 'group A'. Briefly: Streptococcus pyogenes SK(-)GAS viability under kanamycin – luminescence, BacTiterGlo, confirmation, counter-screen for streptokinase expression inhibitor project, dose response (AID 1900). In kind it is functional, organism-based.
A short description of series [14]: viability loss in CEM21 cells – cell-based, CellTiter-Glo luminescence, cherry-picked, cytotoxicity control for viral fusion inhibitor project, dose response (AID 652042).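 Also: potency for signal decrease meaning cytotoxicity.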 In kind it is functional.
Series [15] in a line: fluconazole-exposed Candida albicans growth modulators – fluorescence, retest, confirmation (AID 2467). In kind it is functional, cell-based.
A short description of series [16]: off-target signal loss in HeLa-CEM21 co-culture – HeLa F-luc CTL cells, cherry-picked, counter-screen for HIV-1 Env fusion inhibitor project, dose response (AID 652040).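 Also: potency for signal decrease marking cytotoxic or nonspecific inhibition.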 Type of series: functional, cell-based.
Series [17] can be described thus: decrease of insulin promoter-GFP reporter – imaging, high-content screening, mouse beta cells (AID 1628). In kind it is functional. The settings on record: MIN6.
Series [18] can be described thus: cells. Type of series: functional.
Series [19] is described as follows: HIV-1 AD8 envelope cell-cell fusion blockers – cherry-pick, dose response (AID 652062).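 Also: luciferase signal from cell-cell fusion driven by HIV-1 clade B AD8 Env; potency is for inhibitors of fusion seen as a drop in luminescence.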 In kind it is functional, cell-based.
Series [20] in a line: blockers of HIV-1 envelope-mediated cell-cell fusion – cherry-pick, dose response (AID 652057). Type of series: functional, cell-based.
A short description of series [21]: blockers of HIV-1 ZM109 envelope-driven cell-cell fusion – HeLa effector, CEM target cells, luciferase, cherry-pick, dose response (AID 652058).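 Also: luciferase signal from HIV-1 Env mediated cell-cell fusion of effector and target cells.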 In kind it is functional, cell-based.
A short description of series [22]: NIH-3T3 fibroblast cytotoxicity, dose response, cytotoxicity control, cell-based, fluorescence, Alamar Blue, secondary assay (AID 2327).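 Also: NIH-3T3 mouse fibroblasts cultured with fluconazole at 8 µg/mL.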 Type of series: functional.
A short description of series [23]: HepG2 cell cytotoxicity, dose response, cytotoxicity control for non-replicating M. tuberculosis project (AID 489018). In kind it is functional. The settings on record: Mycobacterium tuberculosis.
A short description of series [24]: THP-1 cell cytotoxicity, dose response, cytotoxicity control for non-replicating M. tuberculosis project (AID 489025). Type of series: functional.
Series [25] is described as follows: MIN6 cell viability loss – mouse insulinoma, cytotoxicity control, dose response (AID 2122).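 Also: confirmatory high-throughput counterscreen run to flag cytotoxic compounds.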 Type of series: functional.
The next series has as its target Cytochrome P450 2D6 (Homo sapiens, UniProt P10635).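 Also: CYP2D6 member of a cytochrome P450 panel assay.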
The target of another series is T2, Cytochrome P450 1A2 (Homo sapiens, UniProt P05177).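 Also: PubChem cytochrome P450 panel assay, CYP1A2 panel member.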
T2 sequence (P05177 whole entry): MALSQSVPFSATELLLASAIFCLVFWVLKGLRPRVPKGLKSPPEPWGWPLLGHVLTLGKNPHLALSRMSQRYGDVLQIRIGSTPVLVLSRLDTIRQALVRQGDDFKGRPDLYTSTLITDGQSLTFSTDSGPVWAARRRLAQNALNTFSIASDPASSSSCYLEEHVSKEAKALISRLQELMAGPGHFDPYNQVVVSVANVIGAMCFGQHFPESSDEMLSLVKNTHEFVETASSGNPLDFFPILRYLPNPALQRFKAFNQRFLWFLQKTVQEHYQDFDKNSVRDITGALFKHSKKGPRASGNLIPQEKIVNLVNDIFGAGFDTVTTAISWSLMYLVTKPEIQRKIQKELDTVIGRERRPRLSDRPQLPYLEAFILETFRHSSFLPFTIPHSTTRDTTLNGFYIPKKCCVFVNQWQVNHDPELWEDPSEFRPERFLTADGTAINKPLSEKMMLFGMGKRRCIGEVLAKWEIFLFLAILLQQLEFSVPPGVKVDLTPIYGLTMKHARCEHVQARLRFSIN

The next series deals with Cytochrome P450 2C19 (Homo sapiens, UniProt P33261). Briefly: Cytochrome panel assay with activity outcomes. Panel member name: p450-cyp2c19 Compounds with AC50 equal or less than 10 uM are considered active. Type of series: functional.
The target of a further series is Cytochrome P450 3A4 (Homo sapiens, UniProt P08684).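 Also: CYP3A4 tested as one member of a cytochrome P450 panel screen.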
The target of another series is Cytochrome P450 2C9 (Homo sapiens, UniProt P11712).
The target of series [26] is T3, Serine/threonine-protein phosphatase (Candida dubliniensis (strain CD36 / CBS 7987 / NCPF 3949 / NRRLY-17841) (Yeast), UniProt B9W6M3).
T3 sequence (B9W6M3 whole entry): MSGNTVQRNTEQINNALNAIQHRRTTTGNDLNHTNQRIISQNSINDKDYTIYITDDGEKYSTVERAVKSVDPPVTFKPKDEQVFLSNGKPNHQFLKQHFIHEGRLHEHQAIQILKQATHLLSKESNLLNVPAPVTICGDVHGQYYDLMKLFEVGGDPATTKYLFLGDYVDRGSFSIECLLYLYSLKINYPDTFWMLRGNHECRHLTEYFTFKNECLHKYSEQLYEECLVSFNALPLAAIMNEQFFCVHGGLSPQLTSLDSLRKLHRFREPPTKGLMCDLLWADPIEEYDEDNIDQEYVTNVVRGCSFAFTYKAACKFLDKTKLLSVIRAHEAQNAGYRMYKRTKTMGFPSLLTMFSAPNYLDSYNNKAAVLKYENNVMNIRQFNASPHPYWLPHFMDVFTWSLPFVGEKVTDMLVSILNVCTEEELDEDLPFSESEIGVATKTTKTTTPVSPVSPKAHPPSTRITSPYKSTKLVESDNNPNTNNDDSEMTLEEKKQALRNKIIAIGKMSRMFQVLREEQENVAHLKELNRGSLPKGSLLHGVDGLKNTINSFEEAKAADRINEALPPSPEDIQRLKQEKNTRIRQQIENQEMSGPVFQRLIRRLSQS
Briefly: Fluorescence Cell-Based Secondary Assay to Identify Inhibitors of Calcineurin. [Related pubchem assays (depositor defined):AID1979, AID2007]. In kind it is functional.

The target of series [27] is T3, Serine/threonine-protein phosphatase. Briefly: blockers of CaCl2-induced CDRE-lacZ signaling – S. cerevisiae, luminescence, secondary, dose response (AID 2388).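 Also: yeast reporter cells carrying a calcineurin-responsive lacZ construct stimulated with calcium chloride; luminescent beta-galactosidase reporter signal in whole cells rather than isolated phosphatase activity; potency for inhibition where a drop in reporter signal means calcineurin blockade.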 Type of series: functional, cell-based.
Series [28] concerns the target Heat shock protein HSP 90-alpha (Homo sapiens, UniProt P07900). Type of series: functional, organism-based.

Active and inactive are the calls of the source.

Sequence of Mu-type opioid receptor (P35372 whole entry): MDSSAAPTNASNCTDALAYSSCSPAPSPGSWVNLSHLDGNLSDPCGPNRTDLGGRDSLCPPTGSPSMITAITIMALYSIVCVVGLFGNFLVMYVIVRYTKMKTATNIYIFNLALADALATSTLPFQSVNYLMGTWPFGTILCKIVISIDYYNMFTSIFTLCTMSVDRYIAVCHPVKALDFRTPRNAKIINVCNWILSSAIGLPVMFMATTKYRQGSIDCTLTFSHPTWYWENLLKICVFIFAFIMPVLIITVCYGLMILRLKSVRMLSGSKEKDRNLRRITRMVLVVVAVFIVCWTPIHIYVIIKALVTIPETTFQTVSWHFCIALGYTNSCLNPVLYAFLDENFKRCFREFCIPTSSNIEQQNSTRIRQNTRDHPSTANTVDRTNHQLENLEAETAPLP
Sequence of Delta-type opioid receptor (P41143 whole entry): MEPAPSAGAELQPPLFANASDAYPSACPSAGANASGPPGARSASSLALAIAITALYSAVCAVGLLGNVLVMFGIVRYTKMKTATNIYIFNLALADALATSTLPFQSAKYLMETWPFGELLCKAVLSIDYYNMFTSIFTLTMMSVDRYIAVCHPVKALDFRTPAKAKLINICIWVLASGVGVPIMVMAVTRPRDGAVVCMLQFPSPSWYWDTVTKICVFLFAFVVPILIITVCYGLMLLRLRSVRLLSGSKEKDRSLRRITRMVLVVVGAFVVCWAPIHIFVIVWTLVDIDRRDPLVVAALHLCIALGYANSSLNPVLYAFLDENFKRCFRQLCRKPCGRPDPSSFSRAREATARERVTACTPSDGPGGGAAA
Sequence of Cytochrome P450 2D6 (P10635 whole entry): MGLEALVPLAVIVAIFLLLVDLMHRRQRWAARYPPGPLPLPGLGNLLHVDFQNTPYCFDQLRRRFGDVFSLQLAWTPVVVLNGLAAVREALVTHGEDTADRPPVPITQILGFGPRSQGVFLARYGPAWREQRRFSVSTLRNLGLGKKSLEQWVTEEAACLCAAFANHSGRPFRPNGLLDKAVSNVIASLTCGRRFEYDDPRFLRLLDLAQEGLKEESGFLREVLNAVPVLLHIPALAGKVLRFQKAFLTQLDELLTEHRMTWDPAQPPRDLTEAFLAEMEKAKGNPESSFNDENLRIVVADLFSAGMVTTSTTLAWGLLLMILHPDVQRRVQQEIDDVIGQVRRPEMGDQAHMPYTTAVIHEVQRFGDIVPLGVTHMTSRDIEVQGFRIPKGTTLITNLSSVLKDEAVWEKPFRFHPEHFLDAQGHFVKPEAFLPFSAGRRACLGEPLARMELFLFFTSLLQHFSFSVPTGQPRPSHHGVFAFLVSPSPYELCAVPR
Sequence of 5-hydroxytryptamine receptor 5A (P47898 whole entry): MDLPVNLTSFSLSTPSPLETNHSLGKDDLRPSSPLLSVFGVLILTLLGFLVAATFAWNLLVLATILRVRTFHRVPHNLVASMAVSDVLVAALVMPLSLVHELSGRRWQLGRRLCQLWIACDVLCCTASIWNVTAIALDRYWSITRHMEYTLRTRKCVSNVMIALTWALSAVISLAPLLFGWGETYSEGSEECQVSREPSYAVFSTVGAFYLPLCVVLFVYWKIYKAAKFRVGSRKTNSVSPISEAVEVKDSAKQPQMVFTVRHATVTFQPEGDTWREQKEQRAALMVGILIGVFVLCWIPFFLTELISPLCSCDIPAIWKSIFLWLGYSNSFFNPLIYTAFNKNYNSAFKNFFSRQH
Sequence of Cytochrome P450 2C19 (P33261 whole entry): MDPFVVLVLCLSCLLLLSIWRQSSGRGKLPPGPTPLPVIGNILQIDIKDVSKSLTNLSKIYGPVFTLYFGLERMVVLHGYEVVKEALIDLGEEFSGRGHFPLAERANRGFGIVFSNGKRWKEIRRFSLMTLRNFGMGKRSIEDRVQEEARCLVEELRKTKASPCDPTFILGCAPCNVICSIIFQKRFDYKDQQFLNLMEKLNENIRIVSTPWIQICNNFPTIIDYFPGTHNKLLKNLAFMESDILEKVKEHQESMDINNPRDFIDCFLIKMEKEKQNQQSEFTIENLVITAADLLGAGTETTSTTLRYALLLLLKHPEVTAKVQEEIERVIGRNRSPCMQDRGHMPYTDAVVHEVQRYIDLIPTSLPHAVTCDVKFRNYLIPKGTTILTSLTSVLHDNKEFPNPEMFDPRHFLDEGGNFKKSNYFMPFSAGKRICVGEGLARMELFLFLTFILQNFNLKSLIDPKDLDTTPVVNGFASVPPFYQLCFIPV
Sequence of Cytochrome P450 3A4 (P08684 whole entry): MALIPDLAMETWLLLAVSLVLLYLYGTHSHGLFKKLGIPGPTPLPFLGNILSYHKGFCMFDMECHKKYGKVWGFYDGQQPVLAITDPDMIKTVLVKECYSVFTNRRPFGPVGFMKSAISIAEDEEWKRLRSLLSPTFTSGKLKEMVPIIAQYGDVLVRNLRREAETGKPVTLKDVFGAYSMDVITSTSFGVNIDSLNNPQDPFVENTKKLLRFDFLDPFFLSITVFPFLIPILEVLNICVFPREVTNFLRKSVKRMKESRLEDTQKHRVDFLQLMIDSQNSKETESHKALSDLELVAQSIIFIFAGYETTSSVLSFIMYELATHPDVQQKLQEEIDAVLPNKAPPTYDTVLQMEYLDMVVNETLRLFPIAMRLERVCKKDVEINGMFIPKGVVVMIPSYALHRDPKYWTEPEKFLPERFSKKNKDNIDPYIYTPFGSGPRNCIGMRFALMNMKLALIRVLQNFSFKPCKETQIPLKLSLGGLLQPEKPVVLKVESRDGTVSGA
Sequence of Cytochrome P450 2C9 (P11712 whole entry): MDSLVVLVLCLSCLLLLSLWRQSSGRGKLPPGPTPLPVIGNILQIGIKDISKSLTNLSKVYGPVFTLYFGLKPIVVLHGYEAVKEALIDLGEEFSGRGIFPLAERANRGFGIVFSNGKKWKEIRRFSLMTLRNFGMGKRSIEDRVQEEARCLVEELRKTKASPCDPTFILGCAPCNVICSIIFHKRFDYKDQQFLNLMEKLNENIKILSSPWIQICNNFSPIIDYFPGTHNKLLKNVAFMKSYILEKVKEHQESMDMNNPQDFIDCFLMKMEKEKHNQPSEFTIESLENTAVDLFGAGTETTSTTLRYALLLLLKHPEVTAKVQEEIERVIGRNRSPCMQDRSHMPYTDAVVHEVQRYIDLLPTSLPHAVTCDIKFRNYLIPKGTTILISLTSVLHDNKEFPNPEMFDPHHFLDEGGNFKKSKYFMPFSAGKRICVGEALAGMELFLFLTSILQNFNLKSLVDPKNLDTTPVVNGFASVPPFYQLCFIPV

Turning to `CCn1ncc(CN2CCCC(C(=O)c3cccc(OC(C)C)c3)C2)c1C` (stereo not drawn), the EC50 in the series “cells [1]” is 0.032 µM (active); in series [2] it was > 60 µM (inconclusive); in [3], > 195 µM (not active); in series [4], < 0.1 µM (active); in series [5], 0.062 µM (active); in [6], 0.062 µM (active).
As for `COc1ccc(C2Nc3ccccc3C(=O)N2Cc2ccco2)cc1COc1ccc(NC(C)=O)cc1` (stereo not drawn), the EC50 in series [7] is 0.149 µM (active); in series [8] it was > 92.5 µM (inactive); at Mu-type opioid receptor it was > 92.5 µM (inactive); in series [9], 0.0173 µM (active); in [10], over 0.01406 µM.
`CCN(c1ccccc1)S(=O)(=O)c1ccc(C(=O)Nc2nnc(-c3ccco3)o2)cc1`: the concentration at half-maximal activity (AC50) in series [11] is 2.63 µM (active); in series [12], 32.4 µM (active). The half-maximal effective concentration (EC50) in the series with Streptococcus is 5.63 µM (active); in [13], 1.61 µM (active).
In the case of `CC(C)[C@@H]1CC[C@@H](C)C[C@H]1OC(=O)C[n+]1cc(-c2ccc(Cl)cc2)n2c1CCCCC2`, the AC50 in series [14] is 8.93 µM (active); in series [16], 37 µM (active); in series [19], 9.97 µM (active); in [20] it was 16.3 µM (active); in series [21], 8.56 µM (active). Moreover, the values for the EC50 in series [15] and in series [22] were 0.225 µM (active) and 23.8 µM (inconclusive), respectively. The IC50 in [17] is 1.14 µM (active); in “cells [18]”, 6.86 µM (active); in [25] it was 1.16 µM (active). Besides, the cytotoxic concentration (CC50) is > 20 µM (active) in [23] and 4.52 µM (active) in [24].
With `FC(F)(F)c1cc(CN2CC[C@@]3(CCCNC3)C2)cc(C(F)(F)F)c1`, the half-maximal activity concentration (AC50) entry at Cytochrome P450 2D6 is “inconclusive”; on Cytochrome P450 1A2, “inconclusive”; on Cytochrome P450 2C19 it was “inconclusive”; at Cytochrome P450 3A4, 3.98 µM (inconclusive); at Cytochrome P450 2C9, “inconclusive”.
As to `O=C(NNC1=C(C(=O)C(F)(F)F)CCC1)c1ccc(Cl)cc1`, the EC50 in series [15] is 0.126 µM (active); in series [26] it was 13.5 µM (active); in [22], 23.5 µM (active); in series [27], > 180 µM (inactive). For the same compound, the AC50 in series [11] is 2.75 µM (active); in series [28] it was 3.37 µM (active).

For the origin of these results see ChEMBL document CHEMBL1201862, “PubChem BioAssay data set” (2004).
